# According to patent US20140024716A1, “Composition Comprising S-Allyl-L-Cysteine as Active Ingredient for Preventing or Treating Gastrointestinal Disorders” (PHARMAKING CO., LTD., priority 2009, published 2014):
# Values joined by “and” are separate entries in the source; they are usually repeats but may differ in a detail not shown here. Identical values can stand only once. “Also recorded” adds a separate entry of the source.
# Key:
# H. pylori ATCC 43504 = assay: Serum anti-H. pylori IgG (ELISA) in Helicobacter pylori-infected mice; format: in vivo, C57BL/6 mice
# Procedure: S-allyl-L-Cysteine (SAC) was purchased from TCI Chemical Co. (Tokyo, Japan). Helicobacter pylori was American Type Culture Collection (ATCC) 43504 (cagA+, vacA s1-ml type) and cultured in a Mueller Hinton-Agar broth at 37° C. for 48 hours, under 5% CO2 microaerophilic conditions with a concentration of 1×10^9 CFU/ml.
# 8-week old male C57BL/6 mice were classified into 4 groups, i.e., a positive control group (to which Helicobacter pylori was administered; PC), a negative control group (to which saline was administered; NC), experimental group 1 (to which Helicobacter pylori and 200 mg/kg of SAC were administered; SAC1), and experimental group 2 (to which Helicobacter pylori and 400 mg/kg of SAC were administered; SAC2). Each group had 10 mice. White powdered SAC was diluted in tap water to concentrations of 20 mg/mL and 40 mg/mL and 10 μl/g (body weight) of the diluted SAC was orally administered to the mice of the SAC1 and SAC2 groups three times a week for 10 weeks. The mice were given free access to tap water for the entire test period. […]
# Enzyme-linked immunosorbent assay (ELISA) was used in order to identify the effect of SAC on serum anti-Helicobacter pylori antibody-formation capability. […] 100 μl of 0.2 M sulfuric acid was added thereto to terminate the reaction and absorbance was measured at 450 nm.
# [1] = system: gastric lesions of rats induced by aspirin; assay: Aspirin-induced gastric lesion animal model; format: in vivo, Sprague-Dawley rats; conditions: for Ulcer Area (mm^2), group mean: n = 6
# Description: SAC was purchased from TCI Chemical Co. (Tokyo, Japan). Sterile water for injection (Model No. 73H5F21, Dae Han Pharmaceutical Co. Ltd.) was used as a vehicle, and Stillen® was used as a positive control material. 0.5% CMC-Na and sterile water for injection were used as excipients for Stillen®. Hydrochloric acid was purchased from Samjung Chemical, Co., ethanol was purchased from Baker, Co., aspirin was purchased from Sigma, Co., and indomethacin was purchased from Sigma, Co.
# (§1) 7 to 8-week old male specific pathogen free (SPF) HsdKoat:Sprague-Dawley®™ SD®™rats (weight of 7-week old males was in the range of 208.44 to 227.39 g, and weight of 8-week old maleswas in the range of 223.85 to 245.03 g, purchased from Koatech, Co. Ltd., Gyunggido, Korea) were quarantined and acclimated in the Animal Lab for 7 days. The rats were bred at a temperature of 23 3° C., at a relative humidity of 55 15%, with light for 12 hours (light turned on at 08:00 and light turned off at 20:00) while air was ventilated 10 to 20 times/hr in the Animal Experiment Lab of Gyeonggi Bio-Center. Other environments for breeding which might influence the test for the entire test period were not considered for use. The rats were given free access to a solid laboratory diet (Harlan Co. Ltd., USA. Teklad certified global 18% protein rodent diet, 2918C) that was supplied by Folas International. […] The rats were given free access to tap water that was sterilized using a UV sterilizer and a micro filter with water bottles.
# The rats were classified into a vehicle control group G1 to which only a vehicle was administered, a experimental group G2 to which 100 mg/kg of SAC was administered, a experimental group G3 to which 200 mg/kg of SAC was administered, a experimental group G4 to which 400 mg/kg of SAC was administered, and a positive control group G5 to which 100 mg/kg of Stillen® (55.6 mg/kg as an active ingredient) as a positive control material were administered. Each group included 8 rats in a hydrochloric acid-ethanol-induced animal model (Experiment Example 7) and included 6 rats in an aspirin-induced animal model (Experimental Example 8) and in an indomethacin-induced animal model (Experimental Example 9).
# The test substance was directly administered to the stomach using an injection tube equipped with a sonde for oral administration in a single dose once per day.
# The rats were fasted for more than 24 hours in a normal environment, the test substance was administered, and 200 mg/kg of aspirin in 0.15 mol/L HCl was orally administered after 30 minutes. After three hours from the aspirin administration, the rats were sacrificed under ether anesthesia and their stomachs including parts of the duodenum and esophagus were isolated. The stomachs were was fixed for 10 minutes by injecting 12 ml of 2% formalin. The greater curvature of each stomach was incised and unfolded, photographs of the gastric grandular region were taken, and then the areas of the lesions were measured using an image analyzer.
# Gastric lesion inhibiting rate (%)=(average area of the vehicle control group-area of gastric lesion of each animal)/average area of the vehicle control group×100.
# [2] = General observation (death, weight) of rats in gastric lesion tests; format: in vivo, Sprague-Dawley rats
# Procedure: as §1, with “bottles. […]” for “bottles.”
smiles,measurement,setting,value
"C=CCSC[C@H](N)C(=O)O [SAC, S-allyl-L-cysteine]","antibody titer of anti-H. pylori IgG in serum, SAC2 versus SAC1 group",H. pylori ATCC 43504; 400 mg/kg versus 200 mg/kg SAC,significantly less than that in the SAC1 group
same,antibody titer of anti-H. pylori IgG in serum versus PC group,"H. pylori ATCC 43504; SAC1 and SAC2 groups (200 and 400 mg/kg SAC oral, 10 weeks)",significantly less; also recorded: less than that in the PC group
same,Ulcer area of individual animal (Animal number 1-6),[1]; G2: 100 mg/kg SAC,91.68 and 44.12 and 40.95 and 63.52 (2×) and 64.67
same,"Ulcer Area (mm^2), group mean","[1]; G2: 100 mg/kg SAC oral, 30 min before 200 mg/kg aspirin",68.6±25.94 mm^2 and 68.6 mm^2
same,Ulcer area of individual animal (Animal number 1-6),[1]; G3: 200 mg/kg SAC,46.29 and 19.37 and 5.41 and 27.07 (2×) and 43.86
same,"Ulcer Area (mm^2), group mean",[1]; G3: 200 mg/kg SAC,31.4±16.99 mm^2 and 31.4 mm^2
same,Ulcer area of individual animal (Animal number 1-6),[1]; G4: 400 mg/kg SAC,63.26 and 9.34 and 70.28 and 40.03 (2×) and 11.58
same,"Ulcer Area (mm^2), group mean",[1]; G4: 400 mg/kg SAC,32.5±29.78 mm^2 and 32.5 mm^2
same,gastric lesion inhibiting rate (%) up to,[1]; highest rate over SAC doses,about 85%
same,death and other changes,"[2]; 100, 200, 400 mg/kg SAC oral single dose, rats",No animals died and no other changes were observed
same,significant weight change with respect to administration,"[2]; 100, 200, 400 mg/kg SAC oral, entire test period",not observed
